Measured values from US10709692B2, “Isoxazolidine derived inhibitors of receptor interacting protein kinase 1 (RIPK1)” (Denali Therapeutics Inc., priority 2015, dated 2020).

Biological target: T1, receptor interacting protein kinase 1 (GST-hRIPK1 (8-327)) (Homo sapiens, UniProt Q13546)
T1 construct: GST-hRIPK1 (8-327) enzyme was generated by Proteros GmbH by Baculovirus expression system
T1 sequence (Q13546 8-327): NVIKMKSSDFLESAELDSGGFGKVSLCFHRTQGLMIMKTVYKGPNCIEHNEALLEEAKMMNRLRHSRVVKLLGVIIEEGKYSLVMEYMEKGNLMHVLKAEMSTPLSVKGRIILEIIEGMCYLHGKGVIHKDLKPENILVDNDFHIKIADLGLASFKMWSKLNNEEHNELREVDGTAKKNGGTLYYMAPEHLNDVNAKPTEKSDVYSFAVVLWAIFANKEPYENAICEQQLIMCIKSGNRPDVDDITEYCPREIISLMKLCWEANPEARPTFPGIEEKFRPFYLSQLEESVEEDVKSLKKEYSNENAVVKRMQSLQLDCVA
Assay: Fluorescent Polarization Binding (FP Binding) assay
Settings: 10 nM GST-hRIPK1 (8-327), 5 nM fluorescent-labeled ligand, 30 min at RT
Description: Fluorescent Polarization Binding (FP Binding) assay (Berger S. B. et al. (2015) Cell Death Discovery, 1: 15009; Maki J. L. et al. (2012) Anal Biochem., 427(2): 164-174) was performed in polystyrene low volume 384-well black plate, at Room Temperature (RT) in a final volume of 10.1 μl/well using 10 nM of GST-hRIPK1 (8-327) enzyme and 5 nM of fluorescent-labeled ligand (14-(2-{[3-({2-{[4-(cyanomethyl)phenyl]amino}-6-[(5-cyclopropyl-1H-pyrazol-3-yl)amino]-4-pyrimidinyl}amino) propyl]amino}-2-oxoethyl)-16,16,18,18-tetramethyl-6,7,7a,8a,9,10,16,18-octahydrobenzo[2″3″]indolizino[8″, 0.7″:5′,6′]pyrano[3′,2′:3,4]pyrido[1,2-a]indol-5-ium-2-sulfonate.
Test compounds were serially diluted in DMSO at 100 fold final concentrations in the assay (1% DMSO final). In each well of a 384-well Plate were dispensed 0.1 μL of compound solution (or DMSO for controls) followed by 5 μL of GST-hRIPK1 (8-327) at twice the final concentrations in assay-buffer (50 mM HEPES pH 7.5, 10 mM NaCl, 50 mM MgCl2, 0.02% CHAPS, 0.5 mM DTT and 0.01% Pluronic F127). For negative control the enzyme addition was replaced by assay buffer only.
After addition of 5 μL of fluorescent-labeled ligand at twice the final concentrations in assay buffer, the plate was incubated at RT for 30 min. At the end, the binding was measured as FP value with the Envision (PerkinElmer) plate reader using filter for an excitation λ=531 nm FP and an emission λ=595 nm FP (S & P-pol).
Test compound inhibition was expressed as percent inhibition of internal assay controls. For concentration response curves, normalized data is fit and IC50 determined using XL-fit (IDBS) for Excel. IC50 were averaged to determine a mean value, for a minimum of two independent experiments.
Receptor interacting protein kinase 1 activity of exemplary compounds was determined according to the above general procedures.
Receptor interacting protein kinase 1 activity of certain compounds was determined according to the above general procedures.

With `CC(CC(F)F)C(=O)N1OCC[C@H]1c1ccc(C#N)cc1` (single isomer, unassigned) [Compound 233] the IC50 was < 1000 nM.
With `O=C(C1CC1(F)F)N1OCC[C@H]1c1ccc(F)cc1` (single isomer, unassigned) [Compound 236] the IC50 was < 1000 nM.
`O=C(C1CC1(F)F)N1OCC[C@H]1c1ccc(F)cc1` (single isomer, unassigned) [Compound 237] was tested, and the IC50 was < 1000 nM.
In the case of `C[C@H](O)C(=O)N1OCC[C@H]1c1ccccc1` [Compound 15, (2S)-2-Hydroxy-1-[(3S)-3-phenyl-1,2-oxazolidin-2-yl]propan-1-one], the IC50 is reported as > 10000 nM.
An IC50 of 1000 to 10000 nM was found for `O=C(c1cnn2ccccc12)N1OCC[C@H]1c1ccccc1` [Compound 21, (3S)-3-phenyl-2-{pyrazolo[1,5-a]pyridine-3-carbonyl}-1,2-oxazolidine] in this work.
In the case of `O=C(N1OCC[C@H]1c1ccc(F)cc1)C1(C(F)(F)F)CCCC1` [Compound 29, (3S)-3-(4-fluorophenyl)-2-[1-(trifluoromethyl)cyclo-pentanecarbonyl]-1,2-oxazolidine], the IC50 is reported as < 1000 nM.
In the case of `CC(C)(C)C(=O)N1OCC[C@@H]1c1cccc(F)c1F` [Compound 30, 1-[(3R)-3-(2,3-Difluorophenyl)-12-oxazolidin-2-yl]-2,2-dimethylpropan-1-one], the IC50 is reported as < 1000 nM.
With `CC(C)(C)C(=O)N1OCC[C@H]1c1cccc(F)c1F` [Compound 31, 1-[(3S)-3-(2,3-Difluorophenyl)-1,2-oxazolidin-2-yl]-2,2-dimethylpropan-1-one] the IC50 was < 1000 nM.
For `O=C(N1OCC[C@H]1c1ccc(F)cc1)C12CC(C1)C2` [Compound 32, (3S)-2-{Bicyclo[1.1.1]pentane-1-carbonyl}-3-(4-fluorophenyl)-1,2-oxazolidine], the IC50 was < 1000 nM.
In the case of `CC1(C(=O)N2OCC[C@H]2c2ccc(F)cc2)COC1` [Compound 33, (3S)-3-(4-Fluorophenyl)-2-(3-methyloxetane-3-carbonyl)-1,2-oxazolidine], the IC50 is reported as < 1000 nM.
`O=C(N1OCC[C@H]1c1ccc(F)cc1)C1(F)CC1` [Compound 34, (3S)-2-(1-Fluorocyclopropane-carbonyl)-3-(4-fluorophenyl)-1,2-oxazolidine] was tested, and the IC50 was < 1000 nM.
`O=C(N1OCC[C@H]1c1ccc(F)cc1)C1(C(F)(F)F)CC1` [Compound 37, (3S)-3-(4-Fluorophenyl)-2-[1-(trifluoromethyl)cyclo-propanecarbonyl]-1,2-oxazolidine] was tested, and the IC50 was < 1000 nM.
`CCC1(C(=O)N2OCC[C@H]2c2ccc(F)cc2)COC1` [Compound 38, (3S)-2-(3-Ethyloxetane-3-carbonyl)-3-(4-fluorophenyl)-1,2-oxazolidine] was tested, and the IC50 was < 1000 nM.
With `O=C(N1OCC[C@H]1c1ccc(F)cc1)C1(C(F)(F)F)CCC1` [Compound 39, (3S)-3-(4-Fluorophenyl)-2-[1-(trifluoromethyl)cyclo-butanecarbonyl]-1,2-oxazolidine] the IC50 was < 1000 nM.
In the case of `CN1CC(C)(C(=O)N2OCC[C@H]2c2ccc(F)cc2)C1` [Compound 42, (3S)-2-(1,3-Dimethylazetidine-3-carbonyl)-3-(4-fluorophenyl)-1,2-oxazolidine], the IC50 is reported as > 10000 nM.
In the case of `CC1(C(=O)N2OCC[C@H]2c2ccc(F)cc2)CNC1` [Compound 43, (3S)-3-(4-Fluorophenyl)-2-(3-methylazetidine-3-carbonyl)-1,2-oxazolidine], the IC50 is reported as > 10000 nM.
An IC50 of 1000 to 10000 nM was found for `CC(C)(C)OC(=O)N1CC(C)(C(=O)N2OCC[C@H]2c2ccc(F)cc2)C1` [Compound 44, tert-Butyl 3-[(3S)-3-(4-fluorophenyl)-1,2-oxazolidine-2-carbonyl]-3-methylazetidine-1-carboxylate] in this work.
An IC50 of 1000 to 10000 nM was found for `CC(C)(C)C(=O)N1OCC[C@@H]1c1ccnc(F)c1` [Compound 45, 1-[(3R)-3-(2-Fluoropyridin-4-yl)-1,2-oxazolidin-2-yl]-2,2-dimethylpropan-1-one] in this work.
With `CC(C)(C)C(=O)N1OCC[C@H]1c1ccnc(F)c1` [Compound 46, 1-[(3S)-3-(2-Fluoropyridin-4-yl)-1,2-oxazolidin-2-yl]-2,2-dimethylpropan-1-one] the IC50 was < 1000 nM.
For `CC(C)(C)C(=O)N1OCC[C@H]1c1ccc(Cl)cc1` [Compound 47, 1-[(3S)-3-(4-Chlorophenyl)-1,2-oxazolidin-2-yl]-2,2-dimethylpropan-1-one], the IC50 was < 1000 nM.
For `CC(C)(C)C(=O)N1OCC[C@@H]1c1ccc(Cl)cc1` [Compound 48, 1-[(3R)-3-(4-Chlorophenyl)-1,2-oxazolidin-2-yl]-2,2-dimethylpropan-1-one], the IC50 was > 10000 nM.
`CC(C)(C)OC(=O)N1OCCC1c1ccc(Cl)cc1` (centres unmarked) [Compound 49, tert-Butyl 3-(4-chlorophenyl)-1,2-oxazolidine-2-carboxylate] was tested, and the IC50 was < 1000 nM.
For `CC(C)(C)C(=O)N1OCC[C@H]1c1ccc(F)c(F)c1` [Compound 50, 1-[(3S)-3-(3,4-Difluorophenyl)-1,2-oxazolidin-2-yl]-2,2-dimethylpropan-1-one], the IC50 was < 1000 nM.
An IC50 of 1000 to 10000 nM was found for `CC(C)(C)C(=O)N1OCC[C@@H]1c1ccc(F)c(F)c1` [Compound 51, 1-[(3R)-3-(3,4-Difluorophenyl)-1,2-oxazolidin-2-yl]-2,2-dimethylpropan-1-one] in this work.
`O=C(N1OCC[C@H]1c1ccccc1)C1(C(F)(F)F)CC1` [Compound 54, (3S)-3-Phenyl-2-[1-(trifluoromethyl)cyclo-propanecarbonyl]-1,2-oxazolidine] was tested, and the IC50 was < 1000 nM.
In the case of `CC(C)(C(=O)N1OCC[C@H]1c1ccccc1)C(F)(F)F` [Compound 55, 3,3,3-Trifluoro-2,2-dimethyl-1-[(3S)-3-phenyl-1,2-oxazolidin-2-yl]propan-1-one], the IC50 is reported as < 1000 nM.
In the case of `CC(C)(F)C(=O)N1OCC[C@H]1c1ccccc1` [Compound 56, 2-Fluoro-2-methyl-1-[(3S)-3-phenyl-1,2-oxazolidin-2-yl]propan-1-one], the IC50 is reported as < 1000 nM.
`CC1(C(=O)N2OCC[C@H]2c2ccccc2)CC(F)(F)C1` [Compound 57, (3S)-2-(3,3-difluoro-1-methylcyclobutane-carbonyl)-3-phenyl-1,2-oxazolidine] was tested, and the IC50 was < 1000 nM.
For `CC(C)(C)C(=O)N1OCCC1c1cccnc1` (centres unmarked) [Compound 58, 2,2-Dimethyl-1-[3-(pyridin-3-yl)-1,2-oxazolidin-2-yl]propan-1-one], the IC50 was < 1000 nM.
In the case of `Cn1c(C#N)ccc1C(=O)N1OCC[C@@H]1c1ccc(F)cc1` [Compound 59, 5-[(3R)-3-(4-fluorophenyl)-1,2-oxazolidine-2-carbonyl]-1-methyl-1H-pyrrole-2-carbonitrile], the IC50 is reported as > 10000 nM.
With `Cn1c(C#N)ccc1C(=O)N1OCC[C@H]1c1ccc(F)cc1` [Compound 60, 5-[(3S)-3-(4-fluorophenyl)-1,2-oxazolidine-2-carbonyl]-1-methyl-1H-pyrrole-2-carbonitrile] the IC50 was < 1000 nM.
An IC50 of 1000 to 10000 nM was found for `CC(C)(C)C(=O)N1OCC[C@@H]1c1cccnc1F` [Compound 63, 1-[(3R)-3-(2-Fluoropyridin-3-yl)-1,2-oxazolidin-2-yl]-2,2-dimethylpropan-1-one] in this work.
`CC(C)C(=O)N1OCC[C@@H]1c1ccc(F)cc1` [Compound 65, 1-[(3R)-3-(4-Fluorophenyl)-1,2-oxazolidin-2-yl]-2-methylpropan-1-one] was tested, and the IC50 was > 10000 nM.
For `CC(C)(C)C(=O)N1OCC[C@H]1c1cccnc1F` [Compound 66, 1-[(3S)-3-(2-Fluoropyridin-3-yl)-1,2-oxazolidin-2-yl]-2,2-dimethylpropan-1-one], the IC50 was < 1000 nM.
An IC50 of 1000 to 10000 nM was found for `CC(C)(C)C(=O)N1OCC[C@@H]1c1c(F)cccc1F` [Compound 67, 1-[(3R)-3-(2,6-Difluorophenyl)-1,2-oxazolidin-2-yl]-2,2-dimethylpropan-1-one] in this work.
